Measurements reported in patent publication US6083976A, “Method of synthesis of derivatives of aloesin” (Univera Pharmaceuticals, Inc., priority 1999, dated 2000).
Where two headings read alike, the source gives them in different places.

Legend:
[1] = relative to hydroquinone; cited from earlier work
tyrosinase [2] = conditions: cited from earlier work
tyrosinase [3] = assay: Tyrosinase activity assay using L-DOPA as a substrate; type: biochemical; conditions: for IC50: L-DOPA 0.4 mM, 48 U tyrosinase, absorbance at 475 nm, read-out: average concentration for 50% tyrosinase inhibition
Procedure: Example 2 illustrates the general method for determination of tyrosinase inhibition by the alkylated aloesins, using octylaloesin for purposes of illustration.
A tyrosinase activity assay was performed using L-DOPA as a substrate. Each 750 μL assay mixture contained KH2 PO4 /K2 HPO4 at a concentration of 50 mM, L-DOPA at a concentration of 0.4 mM, 48 U of tyrosinase activity (tyrosinase obtained from SIGMA at 4,400 U/mg), and varying concentrations of the inhibitor being tested. The progress of the reaction was monitored by measuring the absorbance of the reaction mixture at 475 nm.

Compound	quantity required to achieve a similar effect, compared to the quantity of hydroquinone used [1]	mode of tyrosinase inhibition (Lineweaver Burk diagram) (tyrosinase [2])	IC50 (tyrosinase [3]) [µM]	other results
OC[C@H]1O[C@@H](Oc2ccc(O)cc2)[C@H](O)[C@@H](O)[C@@H]1O [arbutin]	over 100 times	–	–	–
O=C1O[C@H]([C@@H](O)CO)C(O)=C1O [ascorbic acid]	17 times	–	–	–
COc1cc(/C=C/C(=O)O[C@@H]2[C@@H](O)[C@H](O)[C@@H](CO)O[C@H]2c2c(O)cc(C)c3c(=O)cc(CC(C)=O)oc23)ccc1O [2"-O-feruloylaloesin]	–	non-competitive inhibitors of tyrosinase	–	–
CCCCCCCCOc1cc(C)c2c(=O)cc(CC(C)=O)oc2c1[C@@H]1O[C@H](CO)[C@@H](O)[C@H](O)[C@H]1O [Octylaloesin]	–	–	107	fold more potent as a tyrosinase inhibitor than aloesin (tyrosinase [3]; ratio of 50% inhibition concentrations): approximately 2.3 fold
CC(=O)Cc1cc(=O)c2c(C)cc(O)c([C@@H]3O[C@H](CO)[C@@H](O)[C@H](O)[C@H]3O)c2o1 [Aloesin]	–	non-competitive inhibitors of tyrosinase	250	IC50 (tyrosinase [2]; substrate L-DOPA, read-out: concentration for 50% inhibition of tyrosinase activity): 200 µM
